Measurements taken from US20150038430A1, “THERAPEUTIC PEPTIDOMIMETIC MACROCYCLES” (AILERON Therapeutics, Inc., priority 2008, published 2015).
Numbered stars: 1 amine (or outer) side, 2 acyl side, 3 side chain; on linkers, the order of the positions; unused ones are H or OH. Bridge positions count the residues as written; N and C are the ends. Square brackets hold non-standard residues; d marks the D form. Peptide text beside a SMILES is read from it. ξ: configuration not given here. ξαMeNle(6-ylidene) = CC(CCCC=[*:3])(N[*:1])C(=O)[*:2]; Nle = CCCC[C@H](N)C(=O)O

What was measured:
Bcl-2 = assay: Kd, μM | Bcl-2
Source text: (§1) Table printed on a drawing sheet, Figure 27
Head of the field: Kd, μM | Bcl-2
(§2) First copying reader's note: The last row (ABT-737) is a small-molecule comparator; the three plots above the table are not copied.
Where the first naming reader finds the target: head: Kd, μM | Bcl-2

A375 = type: cell-based, human; conditions: 24 h
Procedure: (§3) Cell viability assays shown in FIGS. 34-52 were performed according to a similar protocol. Cells were split at optimal cell density a day prior to the initiation of the study. The next day, cells were washed twice in serum-free Opti-MEM media and 4000 cells/well were added to each well in a final volume of […] Opti-MEM. For serum-free experiments, macrocycles were diluted from 2 mM stocks (100% DMSO) in sterile water to prepare 400 μM working solutions. A 40 μM solution was then generated by ten-fold dilution in assay buffer. The macrocycle and controls were then serially diluted two-fold in assay buffer in dosing plates to provide concentrations between 1.2 and 40 μM, respectively. For experiments in 2% human serum, macrocycles were diluted from 10 mM stocks (100% DMSO) in sterile water to prepare 1 mM working solutions. A 100 μM solution was generated by ten-fold dilution in assay buffer. The macrocycles and controls were then serially diluted two-fold in assay buffer in dosing plates to provide concentrations between 3 and 100 μM, respectively. 50 μl of each dilution was then added to the appropriate wells of the test plate to achieve final concentrations of the macrocycle between 0.6 to 20 μM (for serum free experiment) or 1.5 to 50 μM (for 2% serum experiment), respectively. Controls included wells without macrocycles containing the same concentration of DMSO as the macrocycle-containing wells, wells containing 0.1% Triton X-100, and wells containing no cells. Plates were incubated for 24 hours at 37° C. in a humidified 5% CO2 atmosphere. At the end of a 24 hr incubation period, a CellTiter-Glo Luminescent Cell Viability Assay was performed according to manufacturer's instructions (Promega, catalog #G7571) and the luminescence was measured using a BIO-TEK synergy HT Plate reader. Values were plotted as percent viable, i.e. as a percentage of the negative control value (derived from cells exposed to DMSO only). All assays were performed in duplicate.
(§4) The following tables summarize the EC50 values (μM) observed with peptidomimetic macrocycles of the invention in various cell lines: […]

Jurkat = type: cell-based, human; conditions: 24 h
Procedure: as §3, §4

MM1S = type: cell-based, human; conditions: 24 h
Procedure: as §3, §4

RS4;11 = type: cell-based, human; conditions: 24 h
Procedure: as §3, §4

Raji = type: cell-based, human; conditions: 24 h
Procedure: as §3, §4

SEMK2 = type: cell-based, human; conditions: 24 h
Procedure: as §3, §4

MDA-MB231-Met = type: cell-based, human; conditions: 24 h
Procedure: as §3, §4

Molt-4 = type: cell-based, human; conditions: 24 h
Procedure: as §3, §4

NCI-H82 (SCLC-MCL1+) = type: cell-based, human; conditions: 24 h
Procedure: as §3, §4

OVCAR8 = type: cell-based, human; conditions: 24 h
Procedure: as §3, §4

Mcl-1 = assay: Kd, μM | Mcl-1
Source text: as §1
Head of the field: Kd, μM | Mcl-1
as §2
Where the first naming reader finds the target: head: Kd, μM | Mcl-1

Bcl-xL = Bcl-xL (Homo sapiens, UniProt Q07817); assay: Kd, μM | Bcl-xL
Source text: as §1
Head of the field: Kd, μM | Bcl-xL
Where the first naming reader finds the target: head: Kd, μM | Bcl-xL

PC3 = type: cell-based, human; conditions: 24 h
Procedure: as §3, §4

DHL-6 = type: cell-based, human; conditions: 24 h
Procedure: as §3, §4

Chain of Bcl-xL (Q07817 whole entry, looked up): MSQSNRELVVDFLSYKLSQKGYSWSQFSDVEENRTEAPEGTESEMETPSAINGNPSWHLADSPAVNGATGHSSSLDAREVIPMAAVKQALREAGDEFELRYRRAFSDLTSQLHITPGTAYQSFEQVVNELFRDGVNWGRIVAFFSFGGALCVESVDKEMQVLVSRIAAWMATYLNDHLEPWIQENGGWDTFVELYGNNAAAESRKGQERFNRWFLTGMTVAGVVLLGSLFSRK

Row | Kd (Bcl-2) [µM] | EC50 (A375) [µM] | EC50 (Jurkat) [µM] | EC50 (MM1S) [µM] | EC50 (RS4;11) [µM] | EC50 (Raji) [µM] | EC50 (SEMK2) [µM] | EC50 (MDA-MB231-Met) [µM] | EC50 (Molt-4) [µM] | EC50 (NCI-H82 (SCLC-MCL1+)) [µM] | EC50 (OVCAR8) [µM] | Kd (Mcl-1) [µM] | Kd (Bcl-xL) [µM] | EC50 (PC3) [µM] | EC50 (DHL-6) [µM] | SMILES
1 | > 10 | > 20 | > 20 | > 20 | > 20 | > 20 | > 20 | > 20 | > 20 | > 20 | > 20 | > 10 | > 10 | – | – | CCCC[C@H](NC(=O)C1(C)CCCC=CCCCC(C)(NC(=O)[C@H](C)NC(=O)[C@H](CC(C)C)NC(=O)[C@H](Cc2c[nH]cn2)NC(=O)[C@H](CCCNC(=N)N)NC(=O)[C@H](C)NC(=O)[C@@H](NC(=O)[C@H](CC(N)=O)NC(=O)[C@H](CCCNC(=N)N)NC(=O)[C@@H](NC(=O)[C@@H](NC(=O)[C@H](CC(=O)O)NC(C)=O)[C@@H](C)CC)[C@@H](C)CC)[C@@H](C)CC)C(=O)N[C@@H](C(C)C)C(=O)N[C@@H](CCC(=O)O)C(=O)N[C@@H](CC(=O)O)C(=O)N1)C(=O)N[C@@H](CC(=O)O)C(=O)N[C@@H](CCCNC(=N)N)C(=O)N[C@@H](CO)C(=O)N[C@H](C(N)=O)[C@@H](C)CC (some centres unmarked) [SP-2] (Ac-DIIRNIARHLA[ξαMeNle(6-ylidene)]VED[ξαMeNle(6-ylidene)][Nle]DRSI-NH2; staple 12-16)
2 | > 10 | – | – | – | – | – | – | – | – | – | – | > 10 | > 10 | – | – | CC[C@H](C)[C@H](NC(C)=O)C(=O)N[C@@H](Cc1c[nH]c2ccccc12)C(=O)N[C@H](C(=O)N[C@@H](C)C(=O)N[C@@H](CCC(N)=O)C(=O)N[C@@H](CCC(=O)O)C(=O)N[C@@H](CC(C)C)C(=O)N[C@@H](CCCNC(=N)N)C(=O)NC1(C)CCCC=CCCCC(C)(C(=O)N[C@@H](Cc2ccccc2)C(=O)N[C@@H](CC(N)=O)C(=O)N[C@@H](C)C(=O)N[C@@H](Cc2ccc(O)cc2)C(=O)N[C@@H](Cc2ccc(O)cc2)C(=O)N[C@@H](C)C(=O)N[C@@H](CCCNC(=N)N)C(=O)N[C@@H](CCCNC(=N)N)C(N)=O)NC(=O)[C@H](CC(=O)O)NC(=O)[C@H](CCC(=O)O)NC(=O)[C@H]([C@@H](C)CC)NC1=O)[C@@H](C)CC (some centres unmarked) [SP-5] (Ac-IWIAQELR[ξαMeNle(6-ylidene)]IED[ξαMeNle(6-ylidene)]FNAYYARR-NH2; staple 9-13)
3 | 2.8 | 4.3 | 0.9 | 1.9 | 3.7 | 2.7 | 2.6 | 2 | 1.6 | 1.2 | 3.2 | < 0.1 | 0.25 | 4.6 | 0.9 | CC[C@H](C)[C@H](NC(C)=O)C(=O)N[C@@H](Cc1c[nH]c2ccccc12)C(=O)N[C@H](C(=O)N[C@@H](C)C(=O)N[C@@H](CCC(N)=O)C(=O)N[C@@H](C)C(=O)N[C@@H](CC(C)C)C(=O)N[C@@H](CCCNC(=N)N)C(=O)NC1(C)CCCC=CCCCC(C)(C(=O)N[C@@H](Cc2ccccc2)C(=O)N[C@@H](CC(N)=O)C(=O)N[C@@H](C)C(=O)N[C@@H](Cc2ccc(O)cc2)C(=O)N[C@@H](Cc2ccc(O)cc2)C(=O)N[C@@H](C)C(=O)N[C@@H](CCCNC(=N)N)C(=O)N[C@@H](CCCNC(=N)N)C(N)=O)NC(=O)[C@H](CC(=O)O)NC(=O)CNC(=O)[C@H]([C@@H](C)CC)NC1=O)[C@@H](C)CC (some centres unmarked) [SP-11] (Ac-IWIAQALR[ξαMeNle(6-ylidene)]IGD[ξαMeNle(6-ylidene)]FNAYYARR-NH2; staple 9-13)
4 | > 10 | – | > 20 | > 20 | > 20 | > 20 | > 20 | – | > 20 | – | – | 0.12 | 0.4 | – | > 20 | CCCC[C@H](NC(=O)[C@H](CO)NC(=O)[C@H](CC(=O)O)NC(=O)CNC(=O)[C@@H](NC(=O)[C@H](CCC(N)=O)NC(=O)[C@H](C)NC(=O)[C@H](CC(C)C)NC(=O)[C@H](Cc1c[nH]cn1)NC(=O)[C@H](CCCNC(=N)N)NC(=O)[C@H](C)NC(=O)[C@@H](NC(=O)[C@H](CC(N)=O)NC(=O)[C@H](CCCNC(=N)N)NC(=O)[C@@H](NC(=O)[C@@H](NC(=O)[C@H](CC(=O)O)NC(C)=O)[C@@H](C)CC)[C@@H](C)CC)[C@@H](C)CC)C(C)C)C(=O)N[C@@H](CC(=O)O)C(=O)N[C@@H](CCCNC(=N)N)C(=O)N[C@@H](CO)C(=O)N[C@H](C(N)=O)[C@@H](C)CC [SP-3] (HELM PEPTIDE1{[ac].D.I.I.R.N.I.A.R.H.L.A.Q.V.G.D.S.[Nle].D.R.S.I.[am]}$$$$V2.0)
